Results as given in PMC12267423, “Comparisons of pharmacokinetics of glimepiride in combination with Ojeok-san versus glimepiride alone: an open-label, one-sequence, two-treatment controlled clinical study” (Scientific Reports, 2025).
Where two headings read alike, the source gives them in different places.

Columns and labels:
[1] = Pharmacokinetics of glimepiride and M1 in plasma, glimepiride alone versus with Ojeok-san, clinical crossover study; conditions: for Reduction of mean Cmax with OJS compared to glimepiride monotherapy: absorption phase; for CL/F / t1/2,0–24 h / t1/2,0–48 h / AUC(0-t) / half-life: mean ± SD; for Geometric mean ratio of AUC0–24 h (%, 90% CI) / Geometric mean ratio of AUC0–48 h (%, 90% CI) / Geometric mean ratio of AUCinf (%, 90% CI) / Geometric mean ratio of Cmax (%, 90% CI): glimepiride and OJS co-administration to glimepiride alone; for Tmax: median (min–max)
Description: (§1) Glimepiride (4 mg) was orally administered once daily on days 1–2 during period 1. Subsequently, the 4.35 g/pack of OJS was orally administered three times a day on days 4–11 during period 2, and glimepiride (4 mg) was co-administered once a day on days 9–10 during period 2. Glimepiride (4 mg) was administered at approximately 12:00 PM on days 1 and 9 and at approximately 8:00 AM on days 2 and 10. The 4.35 g/pack of OJS was administered thrice a day at 7:00–10:00 AM, 12:00–03:00 PM, and 6:00–9:00 PM on days 4–11. However, during hospitalization, OJS was administered at approximately 7:00 AM on days 9–10, just 1 h before glimepiride administration.
(§2) For the PK analysis of glimepiride, blood samples were collected immediately before the glimepiride administration on days 1 and 9 on the first day of each period. On days 2 and 10, blood samples were collected immediately before glimepiride administration (0 h) and 0.25, 0.5, 1, 1.5, 2, 2.5, 3, 3.5, 4, 5, 6, 8, 12, 15, 24, and 48 h after glimepiride administration.
(§3) The analyte was separated using a YMC hydrosphere C18 (50 × 2.0 mm, 3 μm; YMC, USA) at 40 ℃. The mobile phase consists of 5 mM ammonium formate and 100% acetonitrile (20:80, v/v) with a flow rate of 180 µL/min. The compounds were detected in the positive mode using an electrospray ionization source. […] A linear response of glimepiride was shown in the range of 2 to 1000 ng/mL (r^2 ≥ 0.9970), and the lower limit of quantification was determined as 2 ng/mL.
(§4) PK parameters were calculated using the noncompartmental method in Phoenix WinNonlin 8.3 (Certara USA Inc., Princeton, NJ, USA). […] The terminal elimination rate constant (kz) was estimated from the regression of the log-linear decrease in the plasma concentration-time profile. The terminal elimination half-life (t1/2) was calculated as the natural logarithm of 2 divided by kz. The area under the plasma concentration-time curve (AUC) from dosing to 24 h post-dosing (AUC0–24 h) and AUC0–48 h from dosing to 48 h post-dosing were calculated using the linear/log trapezoidal rule. The AUC from 0 to infinity (AUCinf) was calculated as AUC0–24 h + C24 / kz, where kz is the terminal elimination rate constant estimated from linear regression of the terminal phase of the log-linear plot of the plasma concentration-time curve. The metabolic ratio was calculated by dividing the M1 AUC0–24 h by glimepiride AUC0–24 h.
(§5) All statistical analyses were performed using SAS 9.4 (SAS Institute Inc. Cary, NC, USA). Descriptive statistics were calculated for continuous variables.

[2] = human, in vivo, 4 mg
Description: as §1, §2, §3, §4, §5

[3] = cited from earlier work
[4] = test system: healthy male subjects; assay: Safety and tolerability (adverse events) in healthy male subjects; format: in vivo, human
Description: Safety and tolerability were assessed during the study period. The occurrence of AEs was monitored, and the investigators assessed its causal relationship with the study drugs. Vital signs, 12-lead electrocardiography (ECGs), physical examinations, and laboratory tests were performed and reviewed.

[5] = test system: glucose; set-up: method as in PMID 33262578; conditions: 4 mg glimepiride, 75 g glucose load; cited from earlier work
[6] = test system: serum glucose concentration; assay: Oral glucose tolerance test (pharmacodynamics) before and after glimepiride with or without OJS; conditions: glucose 50 g (glimepiride alone), 75 g (with OJS)
Description: Oral glucose tolerance tests (OGTT) were performed before and after glimepiride administration on days 1 and 9, and days 2 and 10, respectively, to assess the PD effects (Supplementary information).
The PD parameters included the maximum serum glucose concentration (Gmax), 2-hour serum glucose level (PP2), and area under the glucose concentration-time curve for 4 h after glucose administration (AUG0–4 h), which was calculated using the linear trapezoidal rule. The change values of Gmax, PP2, and AUG0–4 h were calculated by subtracting the baseline serum glucose concentrations from the corresponding post-administration values at each time point, following glimepiride administration with or without OJS. The maximum of these difference values was defined as the change in Gmax, and the value at 2 h as the change in PP2. The area under the curve from 0 to 4 h was calculated using linear trapezoidal method and defined as change in AUG0 − 4 h. Additionally, the percent change (%change) was calculated as: 100×(change value / baseline value).
The initial protocol stipulated the administration of 75 g of glucose; however, due to a lapse in protocol adherence by the administering clinical research nurse, which involved an incorrect glucose dosage of 50 g stemming from a failure to accurately verify the medication label, a deviation occurred (a report of this protocol violation was filed with the Institutional Review Board). Consequently, the plasma glucose assessment post-glimepiride monotherapy was conducted using 50 g of glucose, whereas the evaluation of the combined effect of glimepiride and OJS during the second admission utilized 75 g of glucose, introducing variance in glucose exposure across the two evaluations.

[7] = glimepiride 4 mg qd + OJS 4.35 g tid, N = 13
[8] = glimepiride 4 mg qd alone, N = 16
[9] = glimepiride administered with a meal
[10] = male, human, plasma, oral, 4 mg
[11] = OGTT after glimepiride, mean ± SD

CCC1=C(C)CN(C(=O)NCCc2ccc(S(=O)(=O)NC(=O)NC3CCC(CO)CC3)cc2)C1=O (stereo not drawn) [M1, hydroxy glimepiride]
Reduction of mean Cmax with OJS compared to glimepiride monotherapy [1]: ~14.67% | CL/F [1, 7]: 17.13 ± 4.89 L/h | t1/2,0–24 h [1, 7]: 8.04 ± 2.95 h | t1/2,0–48 h [1, 7]: 8.02 ± 2.80 h | CL/F [1, 8]: 16.40 ± 4.00 L/h | t1/2,0–24 h [1, 8]: 6.73 ± 1.35 h | t1/2,0–48 h [1, 8]: 7.08 ± 1.97 h | Geometric mean ratio of AUC0–24 h (%, 90% CI) [1]: 91.77 (85.53–98.46) % | Geometric mean ratio of AUC0–48 h (%, 90% CI) [1]: 92.48 (85.29–100.26) % | Geometric mean ratio of AUCinf (%, 90% CI) [1]: 95.05 (89.10–101.40) % | Geometric mean ratio of Cmax (%, 90% CI) [1]: 85.33 (77.77–93.62) % | AUC0–24 h [2]: 237.85 ± 61.69 ng·h/mL | AUC0–48 h [2]: 243.05 ± 70.10 ng·h/mL | AUCinf [2]: 258.17 ± 67.99 ng·h/mL | Cmax [2]: 32.61 ± 8.08 ng/mL | Tmax [2]: 5.0 (3.0–6.0) h

Cc1ccc(-c2cc(C(F)(F)F)nn2-c2ccc(S(N)(=O)=O)cc2)cc1 [celecoxib]
Decrease of AUC ([3]; co-administration with OJS): 11.5% | Decrease of Cmax ([3]; co-administration with OJS): 27.5%

CCC1=C(C)CN(C(=O)NCCc2ccc(S(=O)(=O)NC(=O)N[C@H]3CC[C@H](C)CC3)cc2)C1=O [Glimepiride]
Metabolites recovered in the urine [3]: approximately 60% | Reduction of mean AUC ([3]; co-administered with aspirin): 34% | Reduction of mean Cmax ([3]; co-administered with aspirin): 4% | Time to peak plasma concentrations ([3]; following oral administration): 2 to 3 h | Decrease of mean AUC [3, 9]: 9% | Decrease of mean Cmax [3, 9]: 8% | Reduction of AUC ([3]; with colesevelam): 18% | Reduction of Cmax ([3]; with colesevelam): 8% | Reduction of mean Cmax with OJS compared to glimepiride monotherapy [1]: approximately 16.86% | CL/F [1, 7]: 3.68 ± 1.54 L/h | Tmax ([1]; glimepiride 4 mg qd alone, day 2, plasma, N = 16): 4.5 (2.0–5.0) h | CL/F [1, 8]: 3.28 ± 1.16 L/h | t1/2,0–24 h [1, 8]: 8.53 ± 4.69 h | Geometric mean ratio of AUC0–24 h (%, 90% CI) [1]: 86.43 (77.56–96.31) % | Geometric mean ratio of AUC0–48 h (%, 90% CI) [1]: 86.98 (77.49–97.63) % | Geometric mean ratio of AUCinf (%, 90% CI) [1]: 89.15 (81.72–97.26) % | Geometric mean ratio of Cmax (%, 90% CI) [1]: 83.14 (69.96–98.81) % | Geometric mean ratio of AUC0–24 h (%, 90% CI) ([1]; listed as glimepiride): 86.43 (77.56, 96.31) % | Geometric mean ratio of Cmax (%, 90% CI) ([1]; listed as glimepiride): 83.14 (69.96, 98.81) % | AUC(0-inf) [1, 10]: 1380 ± 507 ng·h/mL | Cmax [1, 10]: 251 ± 87 ng/mL | AUC(0-t) ([1]; male, human, plasma, oral, 4 mg, AUC0–24 h, glimepiride 4 mg qd alone, N = 16): 1280 ± 483 ng·h/mL | AUC(0-t) ([1]; male, human, plasma, oral, 4 mg, AUC0–48 h, glimepiride 4 mg qd alone, N = 16): 1300 ± 519 ng·h/mL | Tmax ([1]; male, human, plasma, oral, 4 mg, Tmax, glimepiride 4 mg qd alone, day 2, plasma, N = 16): 4.3 h | half-life ([1]; male, human, plasma, oral, 4 mg, t1/2,0–24 h, glimepiride 4 mg qd alone, N = 16): 8.5 h | half-life ([1]; male, human, plasma, oral, 4 mg, t1/2,0–48 h, glimepiride 4 mg qd alone, N = 16): 8.73 ± 4.78 h | AUC(0-t) ([1]; male, human, plasma, oral, AUC0–24 h, glimepiride 4 mg qd + OJS 4.35 g tid, N = 13): 1130 ± 406 ng·h/mL | AUC(0-t) ([1]; male, human, plasma, oral, AUC0–48 h, glimepiride 4 mg qd + OJS 4.35 g tid, N = 13): 1160 ± 468 ng·h/mL | Tmax ([1]; male, human, plasma, oral, Tmax, glimepiride 4 mg qd + OJS 4.35 g tid, day 10, plasma, N = 13): 5 h | half-life ([1]; male, human, plasma, oral, t1/2,0–24 h, glimepiride 4 mg qd + OJS 4.35 g tid, N = 13): 10.2 ± 4.84 h | half-life ([1]; male, human, plasma, oral, t1/2,0–48 h, glimepiride 4 mg qd + OJS 4.35 g tid, N = 13): 9.33 ± 3.02 h | Metabolic ratio (M1 AUC0–24 h / glimepiride AUC0–24 h), co-administration versus glimepiride alone ([1]; p = 0.1209): not significantly different | Subjects reporting adverse events ([4]; period 1 (glimepiride alone), 6 out of 16 subjects): 37.5% | Subjects reporting adverse events ([4]; period 2 (OJS with glimepiride), 2 out of 13 subjects): 15.4% | AUG0–3 h after glimepiride treatment [5]: 291.8 ± 48.5 mg·h/dL | Gmax after glimepiride treatment [5]: 134.4 ± 26.9 mg/dL | Reduction of Gmax [5]: 68.9 ± 25.1 mg/dL | PP2, Post- ([6]; 2-hour serum glucose after glimepiride, mean ± SD): 95.75 ± 29.96 mg/dL | AUG0–4 h % Change ([6]; 100×(change value / baseline value)): 16.15 ± 5.07% | AUG0–3h, Post- [6, 11]: 334.12 ± 44.24 mg·h/dL | Gmax, Post- [6, 11]: 173.88 ± 20.38 mg/dL | AUG0–3h % Change [6]: 15.54 ± 5.82% | Gmax % Change [6]: 25.48 ± 8.23% | PP2 % Change [6]: 16.88 ± 14.00% | AUG0–3h Change ([6]; post- versus pre-glimepiride): 61.07 ± 29.20 mg·h/dL | AUG0–4 h Change ([6]; post- versus pre-glimepiride): 77.01 ± 32.47 mg·h/dL | Gmax Change ([6]; post- versus pre-glimepiride): 45.63 ± 16.39 mg/dL | PP2 Change ([6]; post- versus pre-glimepiride): 17.94 ± 13.67 mg/dL
